Data: US11369609B2, “Small molecule Wnt inhibitor as treatment for dyslipidemia” (Yale University, priority 2019, dated 2022)
“Also recorded” adds a separate entry of the source.

Experiments:
kidney endothelial cells = assay: Fatty acid uptake in isolated kidney endothelial cells; type: in vivo; settings: diabetic mice, radiolabeled [14C]palmitate uptake
Protocol: Endothelial cells from the kidneys of non-diabetic and diabetic mice were isolated using a standardized kit (Miltenyl Biotech, USA) by following the manufacturer's instructions. Briefly, kidneys were isolated and minced into small pieces. Using a series of enzymatic reactions by treating the tissue with trypsin and Collagenase type I solution, a single cell suspension was created. The pellet was dissolved with CD31 magnetic beads and the CD31-labelled cells were separated on a magnetic separator. The cells were further purified on a column. Cell number was counted by hemocytometer and cells were plated on 0.1% gelatin coated Petri dishes.
Cultured isolated kidney endothelial cells were incubated with medium containing 2 μCi [^14C]palmitate. [^14C]-palmitate uptake was measured by liquid scintillation counting.
It is increasingly recognized that defects in central metabolism contribute to kidney fibrosis (69, 76). Defective FA metabolism in EC leads to EndMT events (77). To investigate whether FA metabolism was deranged in the model, radiolabeled [^14C]palmitate uptake experiments were performed in isolated EC from mouse kidneys. […] FA oxidation (FAO) was also assessed by measuring the ^14CO2 release from radiolabeled [^14C]palmitate in cultured EC isolated from kidneys. […]

canonical Wnt signaling = assay: Renal fibrosis in STZ-induced diabetic CD-1 mice treated with Wnt inhibitor; type: in vivo
Protocol: All experiments were performed in accordance with the National Institute of Health (NIH) Guidelines for the Care of Laboratory Animals. Mice lacking the endothelial glucocorticoid receptor (GR) (known as GR^ECKO) and those lacking this receptor on the Apo E null background (DKO) were generated as previously described (6). The induction of diabetes in CD-1 mice and C57B/L6 mice was performed according to previously established experimental protocols (38-42). Briefly, diabetes was induced in 10-week-old GR^ECKO mice with five consecutive intraperitoneal (IP) doses of streptozotocin (STZ) 50 mg/kg in 10 mmol/L citrate buffer (pH 4.5). Wnt inhibitor (LGK974) was provided to GR^ECKO and control littermate at 5 mg/kg at a frequency of six doses per week for 8 weeks (43). Etomoxir (20 mg/kg) and c75 (15 mg/kg) were dosed (ip) three times per week for 3 weeks in the GR^ECKO and control littermate. A single IP dose of 200 mg/kg STZ was used to induce diabetes in CD-1 mice. Fenofibrate (100 mg/kg), simvastatin (40 mg/kg), were dosed orally for 4 weeks in diabetic CD-1 mice. All mice were sacrificed after 4 weeks of treatment and tissues and blood were harvested. Urine albumin levels were assayed using a Mouse Albumin ELISA Kit (Exocell, Philadelphia, Pa.).
A point-counting method was utilized to evaluate the relative area of the mesangial matrix. PAS-stained glomeruli from each mouse were analyzed using a digital microscope screen grid containing 540 (27×20) points. Masson's trichrome-stained images were evaluated by ImageJ software, and the fibrotic areas were estimated.
Deparaffinized sections were incubated with picrosirius red solution for 1 hour at room temperature. The slides were washed twice with acetic acid solution for 30 seconds per wash. The slides were then dehydrated in absolute alcohol three times, cleared in xylene, and mounted with a synthetic resin. Sirius red staining was analyzed using ImageJ software, and fibrotic areas were quantified.
Paraffin-embedded kidney sections (5 μm thick) were deparaffinized and rehydrated (2 min in xylene, four times; 1 min in 100% ethanol, twice; 1 min in 95% ethanol; 45 s in 70% ethanol; and 1 min in distilled water), and the antigen was retrieved in a 10 mM citrate buffer pH 6 at 98° C. for 60 min. To block the endogenous peroxidase, all sections were incubated in 0.3% hydrogen peroxide for 10 min. The immunohistochemistry was performed using a Vectastain ABC Kit (Vector Laboratories, Burlingame, Calif.). Mouse anti-[…] antibody (1:100) and CPT1a (Abnova; H00001374-DO1P; 1:100) antibody was used. In the negative controls, the primary antibody was omitted and replaced with the blocking solution.
Frozen kidney sections (5 μm) were used for immunofluorescence; double positive labeling with CD31/αSMA, CD31/TGFβR1 and E-cadherin/αSMA was measured. Briefly, frozen sections were dried and placed in acetone for 10 min at −30° C. Once the sections were dried, they were washed twice in phosphate-buffered saline (PBS) for 5 min and then blocked in 2% bovine serum albumin/PBS for 30 min at room temperature. Thereafter, the sections were incubated in primary antibody (1:100) for 1 hour and washed in PBS (5 min) three times. Next, the sections were incubated with the secondary antibodies for 30 min, washed with PBS three times (5 min each), and mounted with mounting medium with DAPI (Vector Laboratories, Burlingame, Calif.). The immune-labeled sections were analyzed by fluorescence microscopy. For each mouse, original magnification of ×400 pictures were obtained from six different areas, and quantification was performed.
To determine whether inhibition of the Wnt signaling pathway could ameliorate the observed fibrosis, LGK974, a small molecule inhibitor of all secreted Wnts (43), was utilized. FIGS. 21A-21B depict the schematic diagram showing the experimental protocol for LGK974 treatment in diabetic CD-1 and UUO mice.

[1] = diabetic CD-1 mice, LGK974 5 mg/kg

For `Cc1cc(-c2ncc(CC(=O)Nc3ccc(-c4cnccn4)cn3)cc2C)ccn1` [LGK974], the “FA uptake in isolated kidney EC” value (kidney endothelial cells) was “suppressed FA uptake”, the ECM deposition (canonical Wnt signaling; [1]) was “greatly diminished” and the collagen accumulation (canonical Wnt signaling; [1]) was “greatly diminished”. The glomerulosclerosis (canonical Wnt signaling; [1]) was “greatly diminished”, the relative area fibrosis (canonical Wnt signaling; [1]) was “greatly diminished” and the “endothelial GR level” value (canonical Wnt signaling; diabetic mice, kidney CD31-positive cells) was “significantly restored”. For the same compound, the “level of β-catenin” value (canonical Wnt signaling; diabetic mice, kidney immunohistochemistry) was “suppressed”, the “canonical Wnt signaling” value (canonical Wnt signaling; mouse model of diabetic kidney disease) was “clearly suppressed” and the fibrogenic phenotype (canonical Wnt signaling; mouse model of diabetic kidney disease (b57 legend also UUO mice)) was “substantially improved; also recorded: abolishes the fibrogenic phenotype”.
